According to PubChem BioAssay (NCI):
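Compound exposure: 48 hours, 5 concentrations, 96-well plates. TGI: total growth inhibition.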

Columns and labels:
Assay in all cases: DTP human tumour cell line panel, 48 h
[1] = system: SW-620 colon
[2] = system: EKVX NSCLC
[3] = system: M14 melanoma
[4] = system: UACC-257 melanoma
[5] = system: SK-MEL-28 melanoma
[6] = system: TK-10 renal
[7] = system: DU-145 prostate
[8] = system: U251 CNS
[9] = system: 786-0 renal
[10] = system: OVCAR-8 ovarian
[11] = system: SF-295 CNS
[12] = system: RXF 393 renal
[13] = system: T-47D breast
[14] = system: COLO 205 colon
[15] = system: KM12 colon
[16] = system: LOX IMVI melanoma
[17] = system: BT-549 breast
[18] = system: RPMI-8226 leukemia
[19] = system: UO-31 renal
[20] = system: UACC-62 melanoma

CC1(C)S[C@H](CN)N[C@H]1C(=O)OC(c1ccccc1)c1ccccc1
TGI [1]: > 100 µM
TGI [2]: > 100 µM
TGI [3]: > 100 µM
TGI [4]: 40.5 µM
TGI [5]: > 100 µM
TGI [6]: > 100 µM
TGI [7]: > 100 µM
TGI [8]: > 100 µM
TGI [9]: > 100 µM
TGI [10]: > 100 µM
TGI [11]: > 100 µM
TGI [12]: > 100 µM
TGI [13]: 74.3 µM
TGI [14]: 33.8 µM
TGI [15]: > 100 µM
TGI [16]: 33.8 µM
TGI [17]: 92.2 µM
TGI [18]: 54.2 µM
TGI [19]: 92.6 µM
TGI [20]: 81.4 µM

COC(=O)C1=C(OC(=O)/C=C/c2ccc(Cl)cc2)C(C(=O)OC)[C@]2(O)[C@@H](C(=O)OC)[C@H]1C[C@@H](c1ccccc1)[C@@H]2C(=O)OC (stereo not given in full)
TGI [1]: > 100 µM
TGI [2]: 53.2 µM
TGI [3]: 49.8 µM
TGI [4]: > 100 µM
TGI [5]: > 100 µM
TGI [6]: > 100 µM
TGI [7]: > 100 µM
TGI [8]: > 100 µM
TGI [9]: > 25.2 µM
TGI [10]: > 30.7 µM
TGI [11]: > 100 µM
TGI [12]: > 100 µM
TGI [13]: > 100 µM
TGI [14]: > 22.2 µM
TGI [15]: > 100 µM
TGI [16]: > 70.4 µM
TGI [17]: > 28.5 µM
TGI [18]: > 100 µM
TGI [19]: > 30.9 µM
TGI [20]: > 100 µM

CCOC(=O)c1nc2ccccc2nc1Oc1ccc(C#N)cc1
TGI [1]: > 100 µM
TGI [2]: > 100 µM
TGI [3]: > 100 µM
TGI [4]: > 100 µM
TGI [5]: > 100 µM
TGI [6]: > 100 µM
TGI [7]: > 100 µM
TGI [8]: > 100 µM
TGI [9]: > 100 µM
TGI [10]: > 100 µM
TGI [11]: > 100 µM
TGI [12]: > 100 µM
TGI [13]: > 100 µM
TGI [14]: > 100 µM
TGI [15]: > 100 µM
TGI [16]: > 100 µM
TGI [17]: > 100 µM
TGI [18]: > 100 µM
TGI [19]: > 100 µM
TGI [20]: > 100 µM
